Target: T1, HCV genotype 1b (BK) NS3 modified with a R155K mutation (Hepatitis C virus genotype 1b, UniProt P26663, R1181K)
T1 construct: HCV genotype 1b (BK) NS3 modified with a R155K mutation
Assay: HCV NS3 protease time-resolved fluorescence (TRF) assay, NS3 protease 1b R155K Ki activity
Assay type: biochemical
Details: HCV genotype 1b (BK) NS3 with R155K mutation; TRF peptide substrate 100 nM; Ki derived from IC50
Outline: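 Pre-incubation of NS3/NS4A protease (genotype 1b BK, R155K) with inhibitor for 30 min, then 1 h at room temperature with 100 nM TRF peptide substrate in pH 7.5 HEPES buffer with 10 mM DTT. Reaction quenched with pH 5.5 MES; time-resolved fluorescence read (ex 340/em 615 nm). Ki derived from four-parameter IC50 fit via IC50=Ki(1+[S]/KM).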

## CC[C@@H]1C[C@]1(NC(=O)[C@@H]1C[C@@H]2CN1C(=O)[C@H](C(C)(C)C)NC(=O)O[C@H]1CCC[C@@H]1CCCCCCn1c(cc3ccccc3c1=O)O2)C(=O)NS(=O)(=O)C1CC1 [(3aS,7S,10S,12R,26aS)-7-tert-butyl-N-((1R,2R)-1-{[(cyclopropylsulfonyl)amino]carbonyl}-2-ethylcyclopropyl)-5,8,19-trioxo-2,3,3a,5,6,7,8,11,12,21,22,23,24,25,26,26a-hexadecahydro-1H,10H,19H-9,12-methanocyclopenta[19,20][1,10,3,6,12]dioxatriazacycloicosino[12,11-b]isoquinoline-10-carboxamide]
  Ki: 1 to 5 nM

## C=C[C@@H]1C[C@]1(NC(=O)[C@@H]1C[C@@H]2CN1C(=O)[C@H](C(C)(C)C)NC(=O)O[C@H]1CCC[C@@H]1CCCCCCn1c(cc3ccccc3c1=O)O2)C(=O)NS(=O)(=O)C1CC1 [(3aS,7S,10S,12R,26aS)-7-tert-butyl-N-((1R,2S)-1-{[(cyclopropylsulfonyl)amino]carbonyl}-2-vinylcyclopropyl)-5,8,19-trioxo-2,3,3a,5,6,7,8,11,12,21,22,23,24,25,26,26a-hexadecahydro-1H,10H,19H-9,12-methanocyclopenta[19,20][1,10,3,6,12]dioxatriazacycloicosino[12,11-b]isoquinoline-10-carboxamide]
  Ki: 0.5 to 1 nM

## C=C[C@@H]1C[C@]1(NC(=O)[C@@H]1C[C@@H]2CN1C(=O)[C@H](C1CCCC1)NC(=O)O[C@@H]1CCC[C@H]1C/C=C/CCn1c(cc3ccccc3c1=O)O2)C(=O)NS(=O)(=O)C1CC1 [Example 1, (3aR,7S,10S,12R,23E,25aS)-7-cyclopentyl-N-((1R,2S)-1-{[(cyclopropylsulfonyl)amino]carbonyl}-2-vinylcyclopropyl)-5,8,19-trioxo-1,2,3,3a,5,6,7,8,11,12,21,22,25,25a-tetradecahydro-10H,19H-9,12-methanocyclopenta[18,19][1,10,3,6,12]dioxatiazacyclononadecino[12,11-b]isoquinoline-10-carboxamide]
  Ki: < 0.1 nM

## C=C[C@@H]1C[C@]1(NC(=O)[C@@H]1C[C@@H]2CN1C(=O)[C@H](C1CCCC1)NC(=O)O[C@@H]1CCC[C@H]1CCCCCn1c(cc3ccccc3c1=O)O2)C(=O)NS(=O)(=O)C1CC1 [Example 13, (3aR,7S,10S,12R,25aR)-7-cyclopentyl-N-((1R,2S)-1-{[(cyclopropylsulfonyl)amino]carbonyl}-2-vinylcyclopropyl)-5,8,19-trioxo-1,2,3,3a,5,6,7,8,11,12,21,22,23,24,25,25a-hexadecahydro-10H,19H-9,12-methanocyclopenta[18,19][1,10,3,6,12]dioxatriazacyclotionadecino[12,11-b]isoquinoline-10-carboxamide]
  Ki: < 0.1 nM

## CC[C@@H]1C[C@]1(NC(=O)[C@@H]1C[C@@H]2CN1C(=O)[C@H](C1CCCC1)NC(=O)O[C@@H]1CCC[C@H]1CCCCCn1c(cc3ccc(F)cc3c1=O)O2)C(=O)NS(=O)(=O)C1CC1 [Example 16, (3aR,7S,10S,12R,25aR)-7-cyclopentyl-N-((1R,2R)-1-{[(cyclopropylsulfonyl)amino]carbonyl}-2-ethylcyclopropyl)-17-flouoro-5,8,19-trioxo-1,2,3,3a,5,6,7,8,11,12,21,22,23,24,25,25a-hexadecahydro-10H,19H-9,12-methanocyclopenta[18,19][1,10,3,6,12]dioxatriazacyclononadecino[12,11-b]isoquinoline-10-carboxamide]
  Ki: 0.1 to 0.5 nM

## C=C[C@@H]1C[C@]1(NC(=O)[C@@H]1C[C@@H]2CN1C(=O)[C@H](C1CCCC1)NC(=O)O[C@@H]1CCC[C@H]1CCCCn1c(cc3ccccc3c1=O)O2)C(=O)NS(=O)(=O)C1CC1 [Example 19, (3aR,7S,10S,12R,24aR)-7-cyclopentyl-N-((1R,2S)-1-{[(cycloproylsulfonyl)amino]carbonyl}-2-vinylcyclopropyl)-5,8,19-trioxo-2,3,3a,5,6,7,8,11,12,21,22,23,24,24a-tetradecahydro-1H,10H,19H-9,12-methanocyclopenta[17,18][1,10,3,6,12]dioxatriazacyclooctadecino[12,11-b]isoquinoline-10-carboxamide]
  Ki: 0.1 to 0.5 nM

## CC[C@@H]1C[C@]1(NC(=O)[C@@H]1C[C@@H]2CN1C(=O)[C@H](C(C)(C)C)NC(=O)O[C@@H]1CCC[C@H]1CCCCCn1c(cc3cc(Cl)ccc3c1=O)O2)C(=O)NS(=O)(=O)C1CC1 [Example 28, (3aR,7S,10S,12R,25aR)-7-tert-butyl-16-chloro-N-((1R,2R)-1-{[(cyclopropylsulfonyl)amino]carbonyl}-2-ethylcyclopropyl)-5,8,19-trioxo-1,2,3,3a,5,6,7,8,11,12,21,22,23,24,25,25a-hexadecahydro-10H,19H-9,12-methanocyclopenta[18,19][1,10,3,6,12]dioxatriazacyclononadecino[12,11-b]isoquinolin-10-carboxamide]
  Ki: 0.1 to 0.5 nM

## C=C[C@@H]1C[C@]1(NC(=O)[C@@H]1C[C@@H]2CN1C(=O)[C@H](C1CCCC1)NC(=O)O[C@@H]1CCC[C@H]1CC/C=C/Cn1c(nc3cc(Br)ccc3c1=O)O2)C(=O)NS(=O)(=O)C1CC1 [Example 43, (3aR,7S,10S,12R,22E,25aS)-16-bromo-7-cyclopentyl-N-((1R,2S)-1-{[(cyclopropylsulfonyl)amino]carbonyl}-2-vinylcyclopropyl)-5,8,19-trioxo-1,2,3,3a,5,6,7,8,11,12,21,24,25,25a-tetradecahydro-10H,19H-9,12-methanocyclopenta[18,19][1,10,3,6,12]dioxatriazatriazacyclononadecino[11,12-b]quinazoline-10-carboxamide]
  Ki: < 0.1 nM

## CC[C@@H]1C[C@]1(NC(=O)[C@@H]1C[C@@H]2CN1C(=O)[C@H](C1CCCC1)NC(=O)O[C@@H]1CCC[C@H]1CC/C=C/Cn1c(nc3cc(OC)ccc3c1=O)O2)C(=O)NS(=O)(=O)C1CC1 [Example 50, (3aR,7S,10S,12R,22E,25aS)-7-cylcopentyl-N-((1R,2R)-1-{[(cyclopropylsulfonyl)amino]carbonyl}-2-ethylcyclopropyl)-16-methoxy-5,8,19-trioxo-1,2,3,3a,5,6,7,8,11,12,21,24,25,25a-tetradecahydro-10H,19H-9,12-methanocyclopenta[18,19][1,10,3,6,12]dioxatriazacyclononadecino[11,12-b]quinazoline-10-carboxamide]
  Ki: 0.1 to 0.5 nM

## C=C[C@@H]1C[C@]1(NC(=O)[C@@H]1C[C@@H]2CN1C(=O)[C@H](C1CCCC1)NC(=O)O[C@@H]1CCC[C@H]1CC/C=C/Cn1c(nc3c(OC)cccc3c1=O)O2)C(=O)NS(=O)(=O)C1CC1 [Example 51]
  Ki: < 0.1 nM

## C=C[C@@H]1C[C@]1(NC(=O)[C@@H]1C[C@@H]2CN1C(=O)[C@H](C1CCCC1)NC(=O)O[C@@H]1CCC[C@H]1CC/C=C/Cc1c(nc3cc(OC)ccn3c1=O)O2)C(=O)NS(=O)(=O)C1CC1 [Example 57, (3aR,7S,10S,12R,22E,25aS)-7-cyclopentyl-N-((1R,2S)-1-{[(cyclopropylsulfonyl)amino]carbonyl}-2-vinylcylcopropyl)-16-methoxy-5,8,20-trioxo-1,2,3,3a,5,6,7,8,11,12,21,24,25,25a-tetradecahydro-10H,20H-9,12-methanocyclopenta[r]pyrido[1′,2′:1,2]pyrimido[4,5-k][1,10,3,6]dioxadiazacyclononadecine-10-carboxamide]
  Ki: < 0.1 nM

## C=C[C@@H]1C[C@]1(NC(=O)[C@@H]1C[C@@H]2CN1C(=O)[C@H](C1CCCC1)NC(=O)O[C@@H]1CCC[C@H]1CC/C=C/Cn1c(nc3cc(C)ccc3c1=O)O2)C(=O)NS(=O)(=O)C1CC1 [Example 61]
  Ki: < 0.1 nM

## C=C[C@@H]1C[C@]1(NC(=O)[C@@H]1C[C@@H]2CN1C(=O)[C@H](C1CCCC1)NC(=O)O[C@@H]1CCC[C@H]1CC/C=C/Cn1c(nc3cc(C#N)ccc3c1=O)O2)C(=O)NS(=O)(=O)C1CC1 [Example 63, (3aR,7S,10S,12R,22E,25a8)-16-cyano-7-cyclopentyl-N-((1R,2S)-1-{[(cyclopropylsulfonyl)amino]carbonyl}-2-vinylcyclopropyl)-5,8,19-trioxo-1,2,3,3a,5,6,7,8,11,12,21,24,25,25a-tetradecahydro-10H,19H-9,12-methanocyclopenta[18,19][1,10,3,6,12]dioxatriazacyclononadecino[11,12-b]quinazoline-10-carboxamide]
  Ki: < 0.1 nM

## C=C[C@@H]1C[C@]1(NC(=O)[C@@H]1C[C@@H]2CN1C(=O)[C@H](C1CCCC1)NC(=O)O[C@@H]1CCC[C@H]1CCCCCn1c(nc3cc(C#N)ccc3c1=O)O2)C(=O)NS(=O)(=O)C1CC1 [Example 78, (3aR,7S,10S,12R,25aR)-16-cyano-7-cyclopentyl-N-((1R,2S)-1-{[(cycyclopropylsulfonyl)amino]carbonyl}-2-vinylcyclopropyl)-5,8,19-trioxo-1,2,3,3a,5,6,7,8,11,12,21,22,23,24,25,25a-hexadecahydro-10H,19H-9,12-methanocyclopenta[18,19][1,10,3,6,12]dioxatriazacyclononadecino[11,12-b]quinazoline-10-carboxamide]
  Ki: 0.1 to 0.5 nM

## C=C[C@@H]1C[C@]1(NC(=O)[C@@H]1C[C@@H]2CN1C(=O)[C@H](C1CCCC1)NC(=O)O[C@@H]1CCC[C@H]1CCC=CCn1c(cccc1=O)O2)C(=O)NS(=O)(=O)C1CC1 [Example 81, (1R,10E, and 10Z,14S,18R,22S,25S)-22-Cyclopentyl-N-((1R,2S)-1-{[(cyclopropyl-sulfonyl)amino]carbonyl}-2-vinylcyclopropyl)-7,20,23-trioxo-2,19-dioxa-8,21,24-tri azatetracyclo[22.2.1.0^3,8.0^14,18]heptacosa-3,5,10-triene-25-carboxamide]
  Ki: 0.1 to 0.5 nM

— patent US8461107B2 (Merck Sharp & Dohme Corp., priority 2008, dated 2013)
